Assay results: article PMC9643456, “Matching amino acids membrane preference profile to improve activity of antimicrobial peptides” (Communications Biology, 2022)
In brackets after ≈: the same amount, converted by molar mass. Ends that are not written are not given here.

Tests used:
[1] = test system: A. baumannii KCCM 40203; experiment: microbe, parasite or virus in culture; conditions: Acinetobacter baumannii, KCCM40203, read-out: MIC at resistance induction condition, A. baumannii KCCM 40203
Method: (§1) To assess antimicrobial activity, the MIC50 and MIC90 were measured using broth microdilution following CLSI guidelines. […] Each experiment was performed in triplicate. Meropenem (Sigma, Darmstadt, Germany) and colistin were used as control antibiotics. Cation-adjusted Mueller–Hinton broth (CAMHB) (Becton, Dickinson and Company, Franklin Lakes, USA) with supplied calcium (50 mg/L) and magnesium (10 mg/L) was used for the CLSI-test condition. Bacteria in midlog phase and peptides were separately diluted in CAMHB. The bacteria and peptide solutions were then mixed in 96-well polyethylene plates (SPL, Gyeonggi-do, Korea) and incubated for 18 h at 37 °C. The final concentration for bacteria was 5 × 10^5 CFU/ml. […] The MIC was defined to be the lowest concentration of peptide without visible turbidity by comparing with control antibiotics with the unaided eye. […] Each experiment was performed in triplicate. MICs in albumin and acetic acid solutions were measured using the same protocol but with 0.2% bovine serum albumin (Bovogen, Keilor, Australia), 0.01% acetic acid (Merck, New Jersey, USA), and CAMHB with both calcium and magnesium. In addition, MICs used in the antibiotic resistance acquisition test, the outer–inner membrane permeation test, and the transmembrane potential test and for FE-SEM were individually determined. The final bacterial concentrations used were as follows: for resistance acquisition, optical density (OD) 0.01; for outer–inner membrane permeability assays (LB), OD 0.1; for the transmembrane potential test, 1 × 10^8 CFU/ml (OD 0.171); […]. Inhibitory activity unidentifiable by direct observation was determined by counting the CFUs. Each experiment was performed at least twice.
A. baumannii (KCCM 40203) and S. aureus (KCTC 1621) were selected as drug-sensitive bacteria. Mutation-susceptible tetracycline (an antibiotic that targets ribosomes) (Sigma, Darmstadt, Germany) and ofloxacin (an antibiotic that targets DNA gyrase) (Sigma, Darmstadt, Germany), mutation-resistant colistin (an antibiotic that targets lipopolysaccharide) (Sigma, Darmstadt, Germany) and vancomycin (an antibiotic that targets peptidoglycan pentapeptide) (Sigma, Darmstadt, Germany) were used as control antibiotics. The MIC for each antibiotic against bacteria (at OD 0.01) was measured. […] The MIC for each passage was confirmed by additional broth microdilutions under CLSI guidelines. Resistance acquisition was induced for 30 days (30 passages), and each MIC value was confirmed by an independent MIC test against bacteria at each passage.

[2] = test system: S. aureus KCTC 1621; experiment: microbe, parasite or virus in culture; format: cell-based; conditions: Staphylococcus aureus, KCTC1621, read-out: MIC at resistance induction condition, S. aureus KCTC 1621
Method: as §1
A. baumannii (KCCM 40203) and S. aureus (KCTC 1621) were selected as drug-sensitive bacteria. […] The MIC for each antibiotic against bacteria (at OD 0.01) was measured. […]

[3] = test system: P. aeruginosa; set-up: method as in 7 sources, one per row (each row's own in cited_ref): ref 39 (a number printed in a supplementary file, which may have a reference list of its own: not looked up in the article's list) ||| ref 40 (a number printed in a supplementary file, which may have a reference list of its own: not looked up in the article's list) ||| ref 41 (a number printed in a supplementary file, which may have a reference list of its own: not looked up in the article's list) ||| ref 42 (a number printed in a supplementary file, which may have a reference list of its own: not looked up in the article's list) ||| ref 44 (a number printed in a supplementary file, which may have a reference list of its own: not looked up in the article's list) ||| ...; conditions: 1 × 10^5 ~ 3.5 × 10^5 cfu/ml, MHB; cited from earlier work
[4] = test system: S. aureus; set-up: method as in 7 sources, one per row (each row's own in cited_ref): ref 39 (a number printed in a supplementary file, which may have a reference list of its own: not looked up in the article's list) ||| ref 40 (a number printed in a supplementary file, which may have a reference list of its own: not looked up in the article's list) ||| ref 41 (a number printed in a supplementary file, which may have a reference list of its own: not looked up in the article's list) ||| ref 42 (a number printed in a supplementary file, which may have a reference list of its own: not looked up in the article's list) ||| ref 43 (a number printed in a supplementary file, which may have a reference list of its own: not looked up in the article's list) ||| ...; conditions: 1 × 10^5 ~ 3.5 × 10^5 cfu/ml, MHB; cited from earlier work
[5] = test system: K. pneumonia strains; experiment: microbe, parasite or virus in culture; conditions: Klebsiella pneumoniae, read-out: MIC, K. pneumonia NCCP 16125
Method: Twenty-six A. baumannii strains were clinically isolated and gifted to us by the Kyungpook National University School of Medicine. One A. baumannii strain (ATCC 17978) was purchased and gifted to us by Kyungpook National University School of Medicine. One A. baumannii strain and 10 K. pneumoniae strains (NCCP) were purchased from the National Culture Collection for Pathogens.
as §1

[6] = test system: MDR S. aureus; experiment: microbe, parasite or virus in culture; conditions: Staphylococcus aureus, KCCM40510, 18 h, read-out: Minimum inhibitory concentrations, MDR S. aureus
Procedure, shortened: (§2)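 CLSI broth microdilution, CAMHB + Ca 50 mg/L, Mg 10 mg/L. Mid-log inoculum 5 × 10^5 CFU/ml final, 18 h, 37 °C. MIC = lowest peptide conc. with no visible turbidity by eye; triplicate.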

[7] = test system: MDR A. baumannii; experiment: microbe, parasite or virus in culture; conditions: Acinetobacter baumannii, ATCCBAA1605, 18 h, read-out: Minimum inhibitory concentrations, MDR A. baumannii
Procedure, shortened: as §2

[8] = test system: MDR E. faecalis; experiment: microbe, parasite or virus in culture; conditions: Enterococcus faecalis, ATCC51575, 18 h, read-out: Minimum inhibitory concentrations, MDR E. faecalis
Procedure, shortened: as §2

[9] = test system: MDR P. aeruginosa; experiment: microbe, parasite or virus in culture; conditions: Pseudomonas aeruginosa, CCARM2180, 18 h, read-out: Minimum inhibitory concentrations, MDR P. aeruginosa
Procedure, shortened: as §2

[10] = test system: E. aerogenes NCCP 16285; experiment: microbe, parasite or virus in culture; conditions: Klebsiella aerogenes, NCCP16285, read-out: MIC, E. aerogenes NCCP 16285
Method: as §1

Question: Which MIC [1] does the source give for `CC1COc2c(N3CCN(C)CC3)c(F)cc3c(=O)c(C(=O)O)cn1c23` (centres unmarked) [Ofloxacin] here?
Answer: 1.25 µM (≈ 0.452 µg/mL)

Question: What about the MIC [2] of the same compound?
Answer: 1.25 µM (≈ 0.452 µg/mL)

Question: For `CN(C)[C@@H]1C(O)=C(C(N)=O)C(=O)[C@@]2(O)C(O)=C3C(=O)c4c(O)cccc4[C@@](C)(O)[C@H]3C[C@@H]12` [Tetracycline], which MIC [1] is on record?
Answer: 1.25 µM (≈ 0.556 µg/mL)

Question: What about the MIC [2] of the same compound?
Answer: 1.25 µM (≈ 0.556 µg/mL)

Question: For “KFKWWRMLI (not fully specified (C-terminus))”, which “MIC (Strain 1), P. aeruginosa H103” value [3] is on record?
Answer: 2.6 µM

Question: What about the “MIC (Strain 2), S. aureus ATCC 25923” value [4] of the same compound?
Answer: 1.2 µM

Question: Which “MIC (Strain 1), P. aeruginosa H103” value [3] does the source give for “WKWLKKWIK (not fully specified (C-terminus))” here?
Answer: 2.9 µM

Question: What about the “MIC (Strain 2), S. aureus ATCC 25923” value [4] of the same compound?
Answer: 0.7 µM

Question: What does the source list for “RLWWKIWLK (not fully specified (C-terminus))”?
Answer: MIC (Strain 1), P. aeruginosa H103 [3]: 22.5 µM; MIC (Strain 2), S. aureus ATCC 25923 [4]: 1.4 µM

Question: With `CN[C@H](CC(C)C)C(=O)N[C@H]1C(=O)N[C@@H](CC(N)=O)C(=O)N[C@H]2C(=O)N[C@H]3C(=O)N[C@H](C(=O)N[C@H](C(=O)O)c4cc(O)cc(O)c4-c4cc3ccc4O)[C@H](O)c3ccc(c(Cl)c3)Oc3cc2cc(c3O[C@@H]2O[C@H](CO)[C@@H](O)[C@H](O)[C@H]2O[C@H]2C[C@](C)(N)[C@H](O)[C@H](C)O2)Oc2ccc(cc2Cl)[C@H]1O` [Vancomycin, reference compound] as the compound, how does the MIC [5] read?
Answer: > 5 µM

Question: And the MIC [6]?
Answer: 1.25 µM (≈ 1.81 µg/mL)

Question: And the MIC [7]?
Answer: > 5 µM

Question: And the MIC [8]?
Answer: > 20 µM

Question: And the MIC [9]?
Answer: > 5 µM

Question: What about the MIC [1] of the same compound?
Answer: 1.25 µM (≈ 1.81 µg/mL)

Question: What about the MIC [2] of the same compound?
Answer: 1.25 µM (≈ 1.81 µg/mL)

Question: And the MIC [10]?
Answer: > 5 µM

Question: Which results are given for “KRRWRIWLV (not fully specified (C-terminus))”?
Answer: MIC (Strain 1), P. aeruginosa H103 [3]: 3.0 µM; MIC (Strain 2), S. aureus ATCC 25923 [4]: 1.5 µM
